Experimental data reported in patent US8410112B2, “Compounds useful as inhibitors of ATR kinase” (Vertex Pharmaceuticals Incorporated, priority 2008, dated 2013).

Biological target: T1, full-length ATR (Homo sapiens, UniProt Q13535)
T1 construct: in the presence of 5 nM full-length ATR
Assay: ATR Inhibition Assay (radioactive-phosphate incorporation)
Assay type: biochemical
Settings: Ki(app); 5 nM full-length ATR, 10 μM ATP, 800 μM target peptide, 25° C.
How it was run: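 After a 10-min pre-incubation of compound with 5 nM enzyme at 25 °C, ATP was added to start the reaction (final 10 μM [γ-33P]ATP, 800 μM peptide; Tris/HCl pH 7.5, MgCl2, DTT), which ran 24 h. Incorporated 33P was captured on phosphocellulose filters, and Ki(app) was fitted by non-linear regression.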

T1 sequence (Q13535 whole entry): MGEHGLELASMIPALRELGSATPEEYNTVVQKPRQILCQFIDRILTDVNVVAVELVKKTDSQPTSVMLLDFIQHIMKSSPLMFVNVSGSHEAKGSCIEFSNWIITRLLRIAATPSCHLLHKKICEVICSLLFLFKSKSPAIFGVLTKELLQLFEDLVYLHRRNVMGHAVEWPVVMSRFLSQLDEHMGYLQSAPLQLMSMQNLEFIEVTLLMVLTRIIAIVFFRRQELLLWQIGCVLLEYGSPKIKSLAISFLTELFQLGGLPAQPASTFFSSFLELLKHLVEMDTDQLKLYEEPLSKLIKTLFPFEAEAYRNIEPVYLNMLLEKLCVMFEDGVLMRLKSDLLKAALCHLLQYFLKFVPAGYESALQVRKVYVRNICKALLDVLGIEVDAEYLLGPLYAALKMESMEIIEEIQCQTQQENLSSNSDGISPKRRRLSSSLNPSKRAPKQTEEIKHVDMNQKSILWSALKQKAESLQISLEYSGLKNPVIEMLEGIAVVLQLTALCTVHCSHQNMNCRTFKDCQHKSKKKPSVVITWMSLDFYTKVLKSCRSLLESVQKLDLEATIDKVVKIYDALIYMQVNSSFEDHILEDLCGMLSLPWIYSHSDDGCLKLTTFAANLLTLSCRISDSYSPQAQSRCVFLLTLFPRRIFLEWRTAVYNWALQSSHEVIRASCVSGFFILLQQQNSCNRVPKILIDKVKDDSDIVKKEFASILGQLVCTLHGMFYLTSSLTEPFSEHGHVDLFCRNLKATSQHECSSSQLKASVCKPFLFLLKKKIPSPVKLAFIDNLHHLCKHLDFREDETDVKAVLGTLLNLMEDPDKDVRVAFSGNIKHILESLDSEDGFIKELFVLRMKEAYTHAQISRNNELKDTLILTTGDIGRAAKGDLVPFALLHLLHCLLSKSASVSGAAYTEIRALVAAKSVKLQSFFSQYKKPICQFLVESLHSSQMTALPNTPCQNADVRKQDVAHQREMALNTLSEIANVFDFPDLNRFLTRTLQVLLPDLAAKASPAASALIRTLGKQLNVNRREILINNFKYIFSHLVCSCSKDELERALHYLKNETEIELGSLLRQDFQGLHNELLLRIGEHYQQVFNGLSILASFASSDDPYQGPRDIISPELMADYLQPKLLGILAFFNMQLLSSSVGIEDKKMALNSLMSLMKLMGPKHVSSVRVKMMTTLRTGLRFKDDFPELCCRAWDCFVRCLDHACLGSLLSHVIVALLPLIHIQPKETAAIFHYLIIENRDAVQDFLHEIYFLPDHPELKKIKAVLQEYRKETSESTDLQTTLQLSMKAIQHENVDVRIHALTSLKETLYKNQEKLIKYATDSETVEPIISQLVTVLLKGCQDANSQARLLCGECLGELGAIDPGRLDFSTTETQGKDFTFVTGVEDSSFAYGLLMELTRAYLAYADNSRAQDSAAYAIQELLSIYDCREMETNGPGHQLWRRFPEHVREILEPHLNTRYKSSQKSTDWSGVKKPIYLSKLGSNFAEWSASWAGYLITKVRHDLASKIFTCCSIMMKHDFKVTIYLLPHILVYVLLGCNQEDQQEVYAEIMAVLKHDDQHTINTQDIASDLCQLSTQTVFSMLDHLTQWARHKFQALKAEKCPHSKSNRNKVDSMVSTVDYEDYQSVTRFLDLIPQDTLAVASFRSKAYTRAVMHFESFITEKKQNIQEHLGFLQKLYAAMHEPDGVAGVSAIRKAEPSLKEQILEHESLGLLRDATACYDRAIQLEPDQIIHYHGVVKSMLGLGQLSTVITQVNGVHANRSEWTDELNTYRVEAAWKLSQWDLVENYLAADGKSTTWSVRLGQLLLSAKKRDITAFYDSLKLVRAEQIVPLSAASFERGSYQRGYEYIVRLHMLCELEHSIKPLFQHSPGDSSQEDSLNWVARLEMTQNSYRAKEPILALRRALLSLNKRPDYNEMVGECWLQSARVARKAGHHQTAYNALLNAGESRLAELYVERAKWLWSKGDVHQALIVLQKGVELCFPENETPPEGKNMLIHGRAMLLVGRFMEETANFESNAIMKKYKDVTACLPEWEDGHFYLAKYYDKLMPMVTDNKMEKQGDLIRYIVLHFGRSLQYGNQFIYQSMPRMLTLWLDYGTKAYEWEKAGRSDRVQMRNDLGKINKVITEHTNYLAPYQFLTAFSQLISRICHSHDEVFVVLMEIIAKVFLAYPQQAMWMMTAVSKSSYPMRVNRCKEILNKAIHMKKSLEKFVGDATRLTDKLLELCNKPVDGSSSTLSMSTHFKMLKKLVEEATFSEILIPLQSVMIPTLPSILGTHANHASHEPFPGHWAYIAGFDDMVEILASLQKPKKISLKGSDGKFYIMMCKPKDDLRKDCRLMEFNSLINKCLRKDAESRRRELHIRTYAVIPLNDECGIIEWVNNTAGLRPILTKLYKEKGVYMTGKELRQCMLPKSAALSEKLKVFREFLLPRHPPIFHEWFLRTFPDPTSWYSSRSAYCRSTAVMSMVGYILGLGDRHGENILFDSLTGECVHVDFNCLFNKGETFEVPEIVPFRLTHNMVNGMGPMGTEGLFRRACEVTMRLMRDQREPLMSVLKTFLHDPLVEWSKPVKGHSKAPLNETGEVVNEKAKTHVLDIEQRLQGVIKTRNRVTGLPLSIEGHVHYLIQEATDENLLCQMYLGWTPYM

| SMILES | Ki |
| --- | --- |
| CCC(=O)N1CCN(c2cnc(N)c(-c3nnc(-c4ccc(CNC)cc4)o3)n2)CC12CC2 [Compound I-363, 1-(7-(5-Amino-6-(5-(4-((methylamino)methyl)phenyl)-1,3,4-oxadiazol-2-yl)pyrazin-2-yl)-4,7-diazaspiro[2.5]octan-4-yl)propan-1-one] | 100 to 1000 nM |
| CCOC(=O)N1CCN(c2cnc(N)c(-c3nc4ccccc4[nH]3)n2)CC1 [Compound I-271, ethyl 4-(5-amino-6-(1H-benzo[d]imidazol-2-yl)pyrazin-2-yl)piperazine-1-carboxylate] | 1000 to 10000 nM |
| Nc1ncc(N2CCN(C(=O)N3CCCCC3)CC2)nc1C(=O)Nc1ccccn1 [Compound I-247, 3-amino-6-(4-(piperidine-1-carbonyl)piperazin-1-yl)-N-(pyridin-2-yl)pyrazine-2-carboxamide] | 1000 to 10000 nM |
| Nc1ncc(N2CCN(S(=O)(=O)c3cccnc3)CC2)nc1C(=O)Nc1ccccn1 [Compound I-233, 3-amino-N-(pyridin-2-yl)-6-(4-(pyridin-3-ylsulfonyl)piperazin-1-yl)pyrazine-2-carboxamide] | 100 to 1000 nM |
| COCCOCC(=O)N1CCN(c2cnc(N)c(-c3nnc(-c4ccccc4)o3)n2)CC1 [Compound I-178, 1-(4-(5-amino-6-(5-phenyl-1,3,4-oxadiazol-2-yl)pyrazin-2-yl)piperazin-1-yl)-2-(2-methoxyethoxy)ethanone] | 100 to 1000 nM |
| Cc1ccc2nc(-c3nc(N4CCN(c5ccccc5)CC4)cnc3N)[nH]c2c1 [Compound I-30, 3-(6-methyl-1H-benzo[d]imidazol-2-yl)-5-(4-phenylpiperazin-1-yl)pyrazin-2-amine] | 100 to 1000 nM |
| CN(C)C(=O)N1CCN(c2cnc(N)c(C(=O)Nc3ccccn3)n2)CC1 [Compound I-229, 3-amino-6-(4-(dimethylcarbamoyl)piperazin-1-yl)-N-(pyridin-2-yl)pyrazine-2-carboxamide] | 100 to 1000 nM |
| Nc1ncc(C2=CCN(C(=O)N3CCOCC3)CC2)nc1-c1nc2ccccc2[nH]1 [Compound I-227, (4-(5-amino-6-(1H-benzo[d]imidazol-2-yl)pyrazin-2-yl)-5,6-dihydropyridin-1(2H)-yl)(morpholino)methanone] | 100 to 1000 nM |
| Nc1ncc(N2CCN(CC(=O)N3CCOCC3)CC2)nc1-c1nnc(-c2ccccc2)o1 [Compound I-303, 2-[4-[5-amino-6-(5-phenyl-1,3,4-oxadiazol-2-yl)pyrazin-2-yl]piperazin-1-yl]-1-morpholino-ethanone] | 100 to 1000 nM |

Other lines, results leading:

| Ki | SMILES |
| --- | --- |
| < 100 nM | CCCS(=O)(=O)N1CC=C(c2cnc(N)c(-c3nc4ccccc4[nH]3)n2)CC1 [Compound I-291, 3-(1H-benzimidazol-2-yl)-5-(1-propylsulfonyl-3,6-dihydro-2H-pyridin-4-yl)pyrazin-2-amine] |
| < 100 nM | Nc1ncc(C2=CCN(C(=O)c3c(F)cccc3F)CC2)nc1-c1nnc(-c2ccccc2)o1 [Compound I-133, (4-(5-amino-6-(5-phenyl-1,3,4-oxadiazol-2-yl)pyrazin-2-yl)-5,6-dihydropyridin-1(2H)-yl)(2,6-difluorophenyl)methanone] |
| < 100 nM | Nc1ncc(C2=CCN(S(=O)(=O)c3cccs3)CC2)nc1-c1nc2ccccc2[nH]1 [Compound I-79, 3-(1H-benzo[d]imidazol-2-yl)-5-(1-(thiophen-2-ylsulfonyl)-1,2,3,6-tetrahydropyridin-4-yl)pyrazin-2-amine] |
| < 100 nM | CN(C)C(=O)N1CC=C(c2cnc(N)c(-c3nnc(-c4ccccc4)o3)n2)CC1 [Compound I-220, 4-(5-amino-6-(5-phenyl-1,3,4-oxadiazol-2-yl)pyrazin-2-yl)-N,N-dimethyl-5,6-dihydropyridine-1(2H)-carboxamide] |
| < 100 nM | CNCc1ccc(-c2nnc(-c3nc(N4CCC(c5ccccc5)C4)cnc3N)o2)cc1 (centres unmarked) [Compound I-316, 3-[5-[4-(Methylaminomethyl)phenyl]-1,3,4-oxadiazol-2-yl]-5-(3-phenylpyrrolidin-1-yl)pyrazin-2-amine] |
